Square brackets hold non-standard residues; d marks the D form. Peptide text beside a SMILES is read from it. * marks the point of attachment. Crotonyl(E) = C/C=C/C(=O)*; Dab = NCC[C@H](N)C(=O)O; Aib = CC(C)(N)C(=O)O
T1: CBP80/CBP20 complex (Homo sapiens, UniProt Q09161)
T1 sequence (Q09161 1-790): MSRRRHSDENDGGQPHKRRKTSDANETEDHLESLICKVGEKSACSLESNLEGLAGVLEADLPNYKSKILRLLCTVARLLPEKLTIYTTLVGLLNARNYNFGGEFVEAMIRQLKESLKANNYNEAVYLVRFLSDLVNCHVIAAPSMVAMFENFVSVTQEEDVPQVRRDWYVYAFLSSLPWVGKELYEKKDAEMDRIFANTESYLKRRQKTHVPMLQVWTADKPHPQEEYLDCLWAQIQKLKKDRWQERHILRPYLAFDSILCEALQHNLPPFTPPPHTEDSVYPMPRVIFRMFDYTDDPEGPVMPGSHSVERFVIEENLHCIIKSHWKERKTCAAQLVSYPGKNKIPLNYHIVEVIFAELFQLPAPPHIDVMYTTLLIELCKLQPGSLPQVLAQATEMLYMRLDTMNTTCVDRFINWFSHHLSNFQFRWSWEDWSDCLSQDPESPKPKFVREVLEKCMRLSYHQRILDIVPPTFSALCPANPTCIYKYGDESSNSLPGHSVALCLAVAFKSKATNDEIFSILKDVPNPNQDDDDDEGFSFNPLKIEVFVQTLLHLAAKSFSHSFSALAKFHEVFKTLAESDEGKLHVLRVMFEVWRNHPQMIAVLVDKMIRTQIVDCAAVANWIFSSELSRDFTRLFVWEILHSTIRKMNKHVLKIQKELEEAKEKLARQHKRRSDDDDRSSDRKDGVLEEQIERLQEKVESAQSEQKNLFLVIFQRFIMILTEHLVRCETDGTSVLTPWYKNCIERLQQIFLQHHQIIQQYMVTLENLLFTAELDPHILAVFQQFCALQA
T1 sequence (P52298 1-156 partner): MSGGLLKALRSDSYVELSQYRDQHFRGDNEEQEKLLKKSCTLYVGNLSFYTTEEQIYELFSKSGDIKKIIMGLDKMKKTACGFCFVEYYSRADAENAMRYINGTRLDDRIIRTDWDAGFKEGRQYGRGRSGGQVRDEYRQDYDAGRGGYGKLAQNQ

T2: CBP80/CBP20 complex (human, UniProt Q09161 20-790; P52298 1-156, limits assumed)
T2 construct: Used in the fluorescence polarization assays; In the crystal it also carried the cap analogue (m7GpppG / m7GpppA); also called CBC complex; CBC
T2 sequence (looked up) 1: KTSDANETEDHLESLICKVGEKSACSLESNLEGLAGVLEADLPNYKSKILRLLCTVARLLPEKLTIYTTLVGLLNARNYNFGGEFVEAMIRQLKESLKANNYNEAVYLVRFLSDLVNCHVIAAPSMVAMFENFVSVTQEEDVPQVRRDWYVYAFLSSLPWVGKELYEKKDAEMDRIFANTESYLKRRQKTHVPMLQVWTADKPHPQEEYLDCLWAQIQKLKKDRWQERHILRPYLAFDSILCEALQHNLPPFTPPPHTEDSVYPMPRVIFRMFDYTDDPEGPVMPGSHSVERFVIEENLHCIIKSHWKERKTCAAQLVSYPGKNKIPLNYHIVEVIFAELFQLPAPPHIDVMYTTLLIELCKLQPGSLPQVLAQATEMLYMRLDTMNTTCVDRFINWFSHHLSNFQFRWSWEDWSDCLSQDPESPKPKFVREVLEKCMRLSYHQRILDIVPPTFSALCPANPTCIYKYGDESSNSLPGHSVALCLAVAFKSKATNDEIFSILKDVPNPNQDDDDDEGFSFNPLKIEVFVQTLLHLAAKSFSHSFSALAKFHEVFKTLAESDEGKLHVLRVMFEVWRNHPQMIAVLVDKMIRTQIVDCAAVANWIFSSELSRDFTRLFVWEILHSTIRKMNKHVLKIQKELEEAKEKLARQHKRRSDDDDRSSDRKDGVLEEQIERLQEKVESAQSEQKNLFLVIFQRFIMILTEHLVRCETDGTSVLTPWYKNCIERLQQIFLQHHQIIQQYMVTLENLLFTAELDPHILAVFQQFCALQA
T2 sequence (looked up) 2: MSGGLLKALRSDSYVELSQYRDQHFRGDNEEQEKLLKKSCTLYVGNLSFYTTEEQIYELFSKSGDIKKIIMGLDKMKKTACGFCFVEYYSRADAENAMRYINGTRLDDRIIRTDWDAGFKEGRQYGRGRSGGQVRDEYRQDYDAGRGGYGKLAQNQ


Assays:
[1] = target: T1, CBP80/CBP20 complex; assay: fluorescence polarization based competition assay (displacement of FITC-labeled PGC1β peptide); format: binding; conditions: 1 μM FITC-labeled PGC1β (FITC-Ahx-AMDFDSLLKEAQQSLH-NH2), 30 μM CBP80/CBP20 complex, HEPES buffer pH 7.5
Experimental: The ability of α-MOrPHs to disrupt the PGC1β-CBP80 interaction will be assessed and quantified via a fluorescence polarization-based competition assay, in which disruption of the complex formed between a fluorescein-conjugated PGC1β peptide and CBP80 is measured upon adding increasing concentrations of each inhibitory α-MOrPH (FIG. 5A). […] Initially, the length of the linker in the inhibitory α-MOrPH will be optimized for maximal activity toward disrupting the PGC1β-CBP80 interaction (e.g. using SP1-3, FIG. 4).
(§1) The relative activity of the PGC1β mimics toward disrupting the interaction between CBC and the fluorescein-conjugated PGC1β-derived peptide was measured in a competition assay. Briefly, a fixed amount of CBC and fluorescein-conjugated PGC1β-derived peptide are incubated with increasing amounts of the PGC1β mimic (FIG. 11A). From the resulting dose-dependent inhibition curves, the in vitro CBC inhibitory activity of the PGC1β mimic compound is measured based on their respective half-maximal inhibitory concentration (IC50) (FIG. 5B). Using this assay, various PGC1β mimics were evaluated for their relative ability to target CBC and disrupt its binding interaction with PGC1β. […] Short peptides derived from the C-terminal domain of PGC1β and PRC proteins, two other members of the PGC1 family of transcriptional coactivators, were also to bind CBC and inhibits its interaction with the fluorescein-labeled PGC1β peptide with IC50 values in the low micromolar range.
IC50 values were determined by adapting the fluorescence polarization assay described above to a competition format. 1 μM of the FITC-labeled PGC1β peptide (FITC-Ahx-AMDFDSLLKEAQQSLH-NH2) was incubated with 30 μM of the CBP80-CBP20 complex in HEPES Buffer (10 mM HEPES [pH 7.5], 50 mM NaCl and 5 mM 2-mercaptoethanol). The inhibitory peptide was added to the solution at varying concentrations, typically ranging from 1 to 200 μM. Half-maximal inhibitory concentration (IC50) values were calculated from the resulting inhibition curves as given by dose-dependent decrease in the fluorescence polarization signal. All measurements were performed at least in duplicates.

[2] = target: T2, CBP80/CBP20 complex; assay: FP competition assay; 1 µM FITC-Ahx-…-NH2 as competitor, 30 µM CBP80/CBP20 complex
Experimental: as §1, with “(IC₅₀)” for “(IC50)”, “IC₅₀” for “IC50”
^aAc = acetyl; Biot = biotin; Ahx = 6-aminohexanoic acid; Aib = 2-aminoisobutyric acid; CrtDab = N^γ-crotonyl-2,4-diaminobutyric acid. C-terminal ‘-NH₂’ refers to amidated C-terminal end of the peptide. ^bIC₅₀ was determined using fluorescence polarization based competition assay in the presence of 1 μM of FITC-labeled PGC1β (FITC-Ahx-[…]-NH₂, where FITC is fluorescein-isothiocyanate) and 30 μM of the CBP80/CBP20 complex in HEPES buffer (10 mM HEPES, 50 mM NaCl, 5 mM BME, pH 7.5).
IC₅₀ values were determined by adapting the fluorescence polarization assay described above to a competition format. 1 μM of the FITC-labeled PGC1β peptide (FITC-Ahx-[…]-NH₂) was incubated with 30 μM of the CBP80-CBP20 complex in HEPES Buffer (10 mM HEPES [pH 7.5], 50 mM NaCl and 5 mM 2-mercaptoethanol).

| Molecule | IC50 [1] [µM] | IC50 [2] [µM] |
| --- | --- | --- |
| Ac-MDFDSLLKEAAQS-NH2 [PGC1β-11A, Ac-MDFDSLLKEAAQS-NH2] | 64 ± 2 |  |
| Ac-MDFDSLLKEAQQS-NH2 [PGC1β-wt, Ac-MDFDSLLKEAQQS-NH2] | 69 |  |
| CSCC[C@H](NC(C)=O)C(=O)N[C@@H](C)C(=O)N[C@@H](Cc1ccccc1)C(=O)N[C@@H](CC(=O)O)C(=O)N[C@@H](CO)C(=O)N[C@@H](CC(C)C)C(=O)N[C@@H](CC(C)C)C(=O)N[C@@H](CCCCN)C(=O)NC(C)(C)C(=O)N[C@@H](C)C(=O)N[C@@H](CCC(N)=O)C(=O)N[C@@H](CCC(N)=O)C(=O)N[C@@H](CO)C(N)=O [PGC1β-16, Ac-MAFDSLLK(Aib)AQQS-NH2] (Ac-MAFDSLLK[Aib]AQQS-NH2) | < 100 |  |
| Ac-MAFDSLLKNAAAS-NH2 [PGC1β-13, Ac-MAFDSLLKNAAAS-NH2] | < 100 |  |
| Ac-MDFDSLAKEAQQS-NH2 [PGC1β-7A, Ac-MDFDSLAKEAQQS-NH2] | > 200 |  |
| Ac-MAFDSMLKAAQQS-NH2 [PGC1β-17, Ac-MAFDSMLKAAQQS-NH2] | < 100 |  |
| Ac-MAFDSLLKNAAQS-NH2 [PGC1β-14, Ac-MAFDSLLKNAAQS-NH2] | < 100 |  |
| Ac-MAFDSLLKAAQQS-NH2 [PGC1β-15, Ac-MAFDSLLKAAQQS-NH2] | < 100 |  |
| Ac-MDFASLLKEAQQS-NH2 [PGC1β-4A, Ac-MDFASLLKEAQQS-NH2] | > 200 |  |
| Ac-AMDFDSLLKEAQQSLH-NH2 [PGC1β-Cterm, Ac-AMDFDSLLKEAQQSLH-NH2] | ~35 |  |
| Ac-MDFDALLKEAQQS-NH2 [PGC1β-5A, Ac-MDFDALLKEAQQS-NH2] | 64 ± 2 |  |
| Ac-MDADSLLKEAQQS-NH2 [PGC1β-3A, Ac-MDADSLLKEAQQS-NH2] | > 200 |  |
| Ac-MDFDSALKEAQQS-NH2 [PGC1β-6A, Ac-MDFDSALKEAQQS-NH2] | > 200 |  |
| C/C=C/C(=O)NCC[C@H](NC(=O)[C@H](CC(C)C)NC(=O)[C@H](CC(C)C)NC(=O)[C@H](CO)NC(=O)[C@H](CC(=O)O)NC(=O)[C@H](Cc1ccccc1)NC(=O)[C@H](CC(=O)O)NC(=O)[C@H](CCSC)NC(C)=O)C(=O)N[C@@H](CCC(=O)O)C(=O)N[C@@H](C)C(=O)N[C@@H](CCC(N)=O)C(=O)N[C@@H](CCC(N)=O)C(=O)N[C@@H](CO)C(N)=O [PGC1β-18, Ac-MDFDSLL(CrtDab)EAQQS-NH2] (Ac-MDFDSLL[Dab](Crotonyl(E))EAQQS-NH2) | < 100 |  |
| Ac-MDFDSLLKEGQQS-NH2 [PGC1β-10A, Ac-MDFDSLLKEGQQS-NH2] | > 200 |  |
| Ac-MAFDSLLKEAQQS-NH2 [PGC1β-2A (Ac-MAFDSLLKEAQQS-NH2)] |  | 50 |
| Ac-MDFDSLLKEAQAS-NH2 [PGC1β-12A (Ac-MDFDSLLKEAQAS-NH2)] |  | 56 |
| Ac-MDFDSLLAEAQQS-NH2 [PGC1β-8A (Ac-MDFDSLLAEAQQS-NH2)] |  | 72 |
| Ac-AMDFDSLLKEAQQSLH-NH2 (also called PGC1β-Cterm peptide; unlabeled version of the PGC1β peptide) [PGC1β-Cterm (Ac-AMDFDSLLKEAQQSLH-NH2)] |  | 32 |
| Ac-SLDFDDLLKQAQKNLRR-NH2 [PRC-Cterm (Ac-SLDFDDLLKQAQKNLRR-NH2)] |  | 93 |
| Ac-MDFDSLLKEAQQSRRRRRRRR-NH2 [PGC1β-19 (Ac-MDFDSLLKEAQQSRRRRRRRR-NH2)] |  | 80 |
| Ac-SLDFDSLLKEAQRSLRR-NH2 [PGC1α-Cterm (Ac-SLDFDSLLKEAQRSLRR-NH2)] |  | 26 |

Source: US20180362587A1, “Compositions and Methods for Inhibiting CBP80 Binding to PGC1 Family of Co-Activators” (University of Rochester, priority 2015, published 2018)
